# Experimental data published in patent publication US7049311B1, “Pyrrolbenzodiazepines” (Spirogen Limited, priority 1998, dated 2006).
# Read-outs that look alike come from different tables or passages of the source.
# Experiments:
# HCC-2998 = assay: NCI in vitro cytotoxicity screen; format: cell-based; settings: Homo sapiens, HCC 2998, 48 h, read-out: LC50
# How it was run: (§1)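 Human tumour cells were seeded at 5000-40,000 per well and preincubated 24 hours at 37° C. Compounds were added at five 10-fold dilutions (10^−4 to 10^−8 […]) for 48 hours continuous exposure in 5% CO2. Viability was measured by sulphorhodamine B protein staining and optical density, giving LC50 values.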
# MALME-3M = assay: NCI in vitro cytotoxicity screen; format: cell-based
# How it was run: as §1
# NCI-H460 = assay: NCI in vitro cytotoxicity screen; format: cell-based; settings: Homo sapiens; NCI-H460 (Lung), 48 hour exposure, SRB assay; read-out: LC50 (the source's name)
# How it was run: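 Cells plated at 5000-40,000 per well, preincubated 24 h at 37° C., then exposed continuously for 48 h to five 10-fold dilutions (10^−4 to 10^−8 […]) in 5% CO2. Viability read by sulphorhodamine B protein staining (optical density); LC50 taken as the dose killing half the cells.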
# SNB-75 = assay: NCI in vitro cytotoxicity screen; format: cell-based; settings: Homo sapiens, SNB-75, 48 h, read-out: LC50
# How it was run: as §1
# UACC-62 = assay: NCI in vitro cytotoxicity screen; format: cell-based
# How it was run: as §1
# [1] = system: MDA-MB-435 xenografts (human mammary tumour); assay: NCI human xenograft study; format: in vivo, mice
# Protocol: (§2) These are carried out on nucle athymic mice with a disabled immune system. The human tumour tissue to be tested is implanted in their flanks, and whilst the control mouse receives no treatment, the others are subjected to varying doses of the test compound, which is administered intraperitoneally. The results are expressed as the toxicity of the compound, the amount of tumour growth, and the inhibition of growth.
# (§3) Athymic nude mice bearing MDA-MB-435 xenografts (human mammary tumour), Ovcar-3 (human ovarian tumour), UACC-62 (human melanoma) or OVCAR-5 (human ovarian tumour) were treated at doses of 0.67 (high), 0.45 (middle) and 0.3 (low) mg/kg/injection given once every 4th day for a total of 3 doses (6 mice per dose level with 20 controls).
# (§4) UP2001 (80) was evaluated by measuring the toxicity of the drug and its ability to retard tumour growth.
# (§5) Toxicity represents the number of mice which died as a result of treatment. % T/C represents the width of the tumours in the “test” mice (T) (as measured with calipers) compared to control untreated mice (C) and presented as a percentage. % Growth Delay represents the increase in the amount of time taken for the tumors to reach an arbitrary size of 250 mg.
# [2] = system: OVCAR-5 (human ovarian tumour); assay: NCI human xenograft study; format: in vivo, mice
# Protocol: as §2, §3, §4, §5
# [3] = system: Ovcar-3 (human ovarian tumour); assay: NCI human xenograft study; format: in vivo, mice
# Protocol: as §2, §3, §4, §5
# UACC-62 (human melanoma) = assay: NCI human xenograft study; format: in vivo, mice
# Protocol: as §2, §3, §4, §5
# [4] = system: human ovarian carcinoma cell line A2780; assay: Cytotoxicity in A2780 (Example 9); format: cell-based
# Protocol: (§6) Relative to the parental line, the A2780cisR subline is known to have elevated GSH levels, an increased level of repair of DNA-cisplatin adducts, and a decreased ability to uptake cisplatin (M. Smellie, et al., Br. J. Cancer, 1994, 70, 48).
# (§7) The results, which were obtained by incubating the cells with the compounds for 96 hours at 37° C., and assessing the cell number using Sulforhodamine B, are presented in the table below: […]
# A2780cisR = assay: Cytotoxicity in cisplatin-resistant A2780cisR (Example 9); format: cell-based, human; settings: for IC50: Homo sapiens, A2780cisR, 96 h
# Protocol: as §6, §7
# [5] = MDA-MB-435 xenografts, dose not given
# [6] = 0.3 mg/kg/injection once every 4th day, 3 doses
# [7] = 0.3 mg/kg/injection once every 4th day, 3 doses, mice which died as a result of treatment
# [8] = 0.3 mg/kg/injection, time for tumours to reach 250 mg
# [9] = 0.45 mg/kg/injection once every 4th day, 3 doses
# [10] = 0.45 mg/kg/injection once every 4th day, 3 doses, mice which died as a result of treatment
# [11] = 0.45 mg/kg/injection, time for tumours to reach 250 mg
# [12] = 0.67 mg/kg/injection once every 4th day, 3 doses
# [13] = 0.67 mg/kg/injection once every 4th day, 3 doses, mice which died as a result of treatment
# [14] = 0.67 mg/kg/injection, time for tumours to reach 250 mg
smiles,measurement,setting,value
C=C1C[C@H]2C=Nc3cc(OCCCOc4cc5c(cc4OC)C(=O)N4CC(=C)C[C@H]4C=N5)c(OC)cc3C(=O)N2C1 [UP2001 (80)],CC50,HCC-2998,99 nM
same,CC50,"MALME-3M; Homo sapiens, Malme-3M, 48 h, read-out: LC50, MALME-3M (Melanoma), 48 hour exposure, SRB assay",80 nM
same,CC50,"MALME-3M; read-out: LC50, MALME-3M (Melanoma), 48 hour exposure, SRB assay",73 nM
same,CC50,NCI-H460,2700 nM
same,CC50,SNB-75,7.5 µM
same,CC50,"UACC-62; Homo sapiens, UACC-62, 48 h, read-out: LC50, UACC-62 (Melanoma), 48 hour exposure, SRB assay",70 nM
same,CC50,"UACC-62; read-out: LC50, UACC-62 (Melanoma), 48 hour exposure, SRB assay",77 nM
same,% T/C Low,"[1]; MDA-MB-435, 0.3 mg/kg/injection once every 4th day, 3 doses",3%
same,Toxicity Low,"[1]; MDA-MB-435, 0.3 mg/kg/injection once every 4th day, 3 doses, mice which died as a result of treatment",2/6
same,% Growth Delay Low,"[1]; MDA-MB-435, 0.3 mg/kg/injection, time for tumours to reach 250 mg",41%
same,% T/C Mid,"[1]; MDA-MB-435, 0.45 mg/kg/injection once every 4th day, 3 doses",3%
same,Toxicity Mid,"[1]; MDA-MB-435, 0.45 mg/kg/injection once every 4th day, 3 doses, mice which died as a result of treatment",1/6
same,% Growth Delay Mid,"[1]; MDA-MB-435, 0.45 mg/kg/injection, time for tumours to reach 250 mg",41%
same,% T/C High,"[1]; MDA-MB-435, 0.67 mg/kg/injection once every 4th day, 3 doses",toxic
same,Toxicity High,"[1]; MDA-MB-435, 0.67 mg/kg/injection once every 4th day, 3 doses, mice which died as a result of treatment",3/6
same,% Growth Delay High,"[1]; MDA-MB-435, 0.67 mg/kg/injection, time for tumours to reach 250 mg",41%
same,delay in the time taken to reach tumour mass of 250 mg,[1]; [5],41%
same,tumour growth in treated mice as % of the tumour growth in the control population,[1]; [5],3%
same,% T/C Low,"[2]; OVCAR-5, 0.3 mg/kg/injection once every 4th day, 3 doses",38%
same,Toxicity Low,"[2]; OVCAR-5, 0.3 mg/kg/injection once every 4th day, 3 doses, mice which died as a result of treatment",0/6
same,% Growth Delay Low,"[2]; OVCAR-5, 0.3 mg/kg/injection, time for tumours to reach 250 mg",32%
same,% T/C Mid,"[2]; OVCAR-5, 0.45 mg/kg/injection once every 4th day, 3 doses",45%
same,Toxicity Mid,"[2]; OVCAR-5, 0.45 mg/kg/injection once every 4th day, 3 doses, mice which died as a result of treatment",0/6
same,% Growth Delay Mid,"[2]; OVCAR-5, 0.45 mg/kg/injection, time for tumours to reach 250 mg",28%
same,% T/C High,"[2]; OVCAR-5, 0.67 mg/kg/injection once every 4th day, 3 doses",52%
same,Toxicity High,"[2]; OVCAR-5, 0.67 mg/kg/injection once every 4th day, 3 doses, mice which died as a result of treatment",0
same,% Growth Delay High,"[2]; OVCAR-5, 0.67 mg/kg/injection, time for tumours to reach 250 mg",16%
same,tumour size reduction,"[2]; OVCAR-5 xenografts, dose not given",approximately 50%
same,% T/C Low,[3]; [6],46%
same,Toxicity Low,[3]; [7],0/6
same,% Growth Delay Low,[3]; [8],9%
same,% T/C Mid,[3]; [9],20%
same,Toxicity Mid,[3]; [10],0/6
same,% Growth Delay Mid,[3]; [11],73%
same,% T/C High,[3]; [12],7%
same,Toxicity High,[3]; [13],0/6
same,% Growth Delay High,[3]; [14],73%
same,% T/C Low,UACC-62 (human melanoma); [6],67%
same,Toxicity Low,UACC-62 (human melanoma); [7],0/6
same,% Growth Delay Low,UACC-62 (human melanoma); [8],43%
same,% T/C Mid,UACC-62 (human melanoma); [9],28%
same,Toxicity Mid,UACC-62 (human melanoma); [10],0/6
same,% Growth Delay Mid,UACC-62 (human melanoma); [11],43%
same,% T/C High,UACC-62 (human melanoma); [12],22%
same,Toxicity High,UACC-62 (human melanoma); [13],0/6
same,% Growth Delay High,UACC-62 (human melanoma); [14],43%
same,fold increase in cytotoxicity compared to DSB-120,[4]; A2780 cell line,320 fold
same,IC50,"[4]; Homo sapiens, A2780, 96 h, read-out: IC50 A2780",0.023 nM
same,fold more potent than DSB-120,A2780cisR; A2780cisR cell line,"~9,000 fold"
same,IC50,A2780cisR; read-out: IC50 A2780cisR,0.024 nM
same,IC50,A2780cisR; read-out: IC50 A2780cis^a,0.024 nM
